Patent US9308198B2, “Treatment, prevention, and reversal of alcohol-induced brain disease” (priority 2006, dated 2016)

System: ChAT
Test: ChAT immunoreactivity (MICE assay)
Format: cell-based, rat
Procedure: In vitro experiments were used to examine the effects of ethanol on receptor binding and choline acetyltransferase (ChAT) and acetylcholinesterase (AChE) expression in cerebellar neurons. Primary neuronal cultures were generated with postnatal day 8 rat pup cerebellar tissue (Nikolic et al. Genes Dev. 10:816 (1996)). The cultures were maintained with Dulbecco's modified Eagle's medium (DMEM) supplemented with 5% fetal calf serum, 4 mM glutamine, 100 μM non-essential amino acid mixture (Gibco-BRL, Grand Island, N.Y.), 25 mM KCl, and 9 g/L glucose. Ethanol treatment was accomplished by placing the cultures (seeded in 6-well dishes or 96-well plates) in sealed chambers in which 50 mM ethanol was vaporized from a reservoir tray (de la Monte et al. Alcohol Clin. Exp. Res. 24:716 (2000); Banerjee et al. Alcohol Clin. Exp. Res. 22:2093 (1998)). Control cultures were identically treated but with water added to the reservoir tray. The chambers were flushed with gas containing 75% nitrogen, 20% oxygen, and 5% carbon dioxide. After 96 hours incubation at 37° C., the cells were harvested to measure insulin, IGF-I, and IGF-II receptor binding. Alternatively, the cells were serum-starved for 12 hours and then stimulated with 10 nM insulin, […], 25 nM IGF-II, or vehicle for 16 hours, and RNA was harvested to measure ChAT and AChE expression. Parallel 96-well cultures stimulated with growth factors for 10 minutes were used to measure ATP, or for 16 hours to measure viability, and ChAT or AChE immunoreactivity. To investigate the role of membrane cholesterol content in relation to receptor binding, control and ethanol-exposed cells were treated with vehicle, 10 mM Methyl-β-cyclodextrin (MβCD), or 10 mM aqueous soluble cholesterol in Locke's buffer (154 mM NaCl, 5.6 mM KCl, 2.3 mM CaCl2, 1.0 mM MgCl2, 3.6 mM NaHCO3, 5 mM glucose, 5 mM Hepes, pH 7.4) for 3 hours and then harvested for binding assays. To examine the effects of membrane cholesterol content on growth factor stimulated neuronal viability and function, identically treated 96-well cultures were stimulated with vehicle, 10 nM insulin, 10 nM IGF-I, or 25 nM IGF-II for 10 minutes and then analyzed for ATP content, or for 16 hours and then used to measure viability and ChAT or AChE immunoreactivity with the MICE assay (de la Monte et al., Biotechniques 26:1073 (1999)). ATP content was measured with the ATPLite assay (Packard, Meriden, Conn.). Viability was measured using the CyQuant assay (Molecular Probes, Eugene, Oreg.). Immunoreactivity was measured directly in the cultured wells using the microtiter immunocytochemical ELISA (MICE) assay (de la Monte et al., Biotechniques 26:1073 (1999)).
The concentration of ethanol used was within the range detected in human alcoholics (Fulop et al., Am. J. Med. 80:191 (1986); Jagger et al., Neurosurgery 15:303 (1984)). ChAT and AChE immunoreactivity were measured directly in the cultured cells using the MICE assay (cellular ELISA), with values normalized to cell density.
The effects of cholesterol or MβCD treatment on neuronal viability (FIGS. 19A-19C), ATP production (energy metabolism; FIGS. 19D-19F), ChAT (FIGS. […]) and AChE (FIGS. 19J-19L) immunoreactivity were examined in cells that were treated as described above and stimulated 12 hours with vehicle (control), 10 nM insulin, 10 nM IGF-I, or 25 nM IGF-II in serum-free medium. All assays were performed using 96-well cultures. Viability was measured using the CyQuant assay and ATP content was measured using the ATPLite assay.

[1] = 10 mM for 3 hours, control cells

Molecule: CCO [ethanol]
- ChAT immunoreactivity (50 mM ethanol for 96 hours, basal, insulin-stimulated and IGF-I stimulated, relative to control): significantly reduced

Molecule: CC(C)CCC[C@@H](C)[C@H]1CC[C@H]2[C@@H]3CC=C4C[C@@H](O)CC[C@]4(C)[C@H]3CC[C@]12C [cholesterol]
- basal and growth factor stimulated ChAT expression [1]: muted
- insulin-, IGF-I-, and IGF-II-stimulated levels of ChAT (10 mM for 3 hours, ethanol-exposed cells, relative to vehicle-treated cells): significantly increased

Molecule: Methyl-β-cyclodextrin [MβCD]
- IGF-I- and IGF-II-stimulated ChAT [1]: significantly increased
- insulin-stimulated ChAT [1]: abolished the insulin-stimulated increases in ChAT
- ChAT expression relative to control (10 mM for 3 hours, ethanol-exposed cells, independent of growth factor stimulation): broadly reduced levels
